Data as given in patent publication US20240124410A1, “SMALL MOLECULES AND THEIR USE AS MALT1 INHIBITORS” (University of Pittsburgh - Of the Commonwealth System of …, priority 2021, published 2024).

Target: T1, BCL10-MALT1 interaction (Homo sapiens, UniProt Q9UDY8)
T1 construct: analyte a purified recombinant MALT1 fragment (DD+Ig1-2, Sumo-tagged Ig1-2 or GB-tagged DD)
T1 sequence (Q9UDY8 1-824): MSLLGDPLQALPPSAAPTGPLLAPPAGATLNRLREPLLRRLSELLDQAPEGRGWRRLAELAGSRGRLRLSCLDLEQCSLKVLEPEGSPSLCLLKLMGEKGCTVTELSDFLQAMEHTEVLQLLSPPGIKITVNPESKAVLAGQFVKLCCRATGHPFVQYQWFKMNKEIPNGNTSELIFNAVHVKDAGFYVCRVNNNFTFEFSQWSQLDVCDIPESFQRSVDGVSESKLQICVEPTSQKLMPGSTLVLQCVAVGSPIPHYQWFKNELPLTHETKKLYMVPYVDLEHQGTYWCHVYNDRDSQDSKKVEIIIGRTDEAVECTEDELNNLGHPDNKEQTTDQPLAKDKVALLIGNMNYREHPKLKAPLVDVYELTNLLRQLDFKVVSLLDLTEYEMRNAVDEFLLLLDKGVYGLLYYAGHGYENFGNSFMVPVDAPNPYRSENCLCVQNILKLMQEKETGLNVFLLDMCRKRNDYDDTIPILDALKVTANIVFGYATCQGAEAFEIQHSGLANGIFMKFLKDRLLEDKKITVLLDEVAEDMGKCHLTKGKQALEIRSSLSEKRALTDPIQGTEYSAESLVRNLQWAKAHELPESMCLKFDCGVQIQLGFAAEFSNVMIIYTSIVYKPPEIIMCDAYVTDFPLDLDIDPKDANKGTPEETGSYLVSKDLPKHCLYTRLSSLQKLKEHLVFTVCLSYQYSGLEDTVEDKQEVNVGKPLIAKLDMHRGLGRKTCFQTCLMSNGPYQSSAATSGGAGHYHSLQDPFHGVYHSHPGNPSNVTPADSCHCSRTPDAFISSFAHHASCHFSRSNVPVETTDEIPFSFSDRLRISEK
T1 sequence (O95999 1-233 partner): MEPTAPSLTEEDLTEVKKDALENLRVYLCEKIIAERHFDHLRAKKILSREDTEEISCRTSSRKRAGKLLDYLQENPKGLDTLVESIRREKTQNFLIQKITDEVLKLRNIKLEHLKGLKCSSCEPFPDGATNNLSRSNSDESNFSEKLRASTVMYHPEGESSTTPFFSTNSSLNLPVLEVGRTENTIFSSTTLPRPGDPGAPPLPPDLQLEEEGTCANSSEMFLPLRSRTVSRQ
Assay: SPR analysis of disruption of the BCL10-MALT1 interaction, dose-response (FIG. 2E); Biacore 2000, full-length Bcl10 (GST-tagged recombinant human, Abnova H00008915-P01) immobilized on sensor chip, MALT1 protein passed over
Type: binding
From the text: FIG. 2. In silico screening identifies small molecules targeting the predicted BCL10-binding groove within MALT1 (Ig1-2). (A) We performed a structure-guided in silico screen of 3 million compounds, using the LibDock program from Discovery Studio 3.5, in order to identify candidate molecules that could potentially fit within the identified groove in the MALT1 Ig1-2 domain. Lipinski's rule of five filters (LipinskiRo5) were applied to enrich for compounds with drug-like properties. Potential compound hits were then screened for their ability to disrupt the MALT1-BCL10 interaction using SPR analysis. 9 candidate compounds were then subjected to a second, ELISA-based MALT1-BCL10 interaction assay, identifying 2 compounds that could disrupt the interaction in both SPR and ELISA assays. M1i-124 and M1i-1255 are the two compounds identified to disrupt the BCL10-MALT1 interaction. […]
The LibDock program from Discovery Studio 3.5 was used to perform a structure-guided in silico screen of 3 million compounds to identify candidate molecules that could potentially fit within the identified groove of MALT1 Igl-Ig2 domain, found to be critical for BCL10-MALT1 interaction. […] Top hits were further evaluated for their potential to disrupt the BCL10-MALT1 interaction through secondary SPR and ELISA-based assays as described below. […]

With `O=S(=O)(NCc1ccc2c(c1)OCO2)c1ccc(Cc2ccc(S(=O)(=O)NCc3ccc4c(c3)OCO4)cc2)cc1` [M1i-124] as the molecule, how does the IC50 read?
Its IC50 is 22 µM.
